According to patent US7452885B2, “Amino-5-(6-membered)heteroarylimidazolone compounds and the use thereof for β-secretase modulation” (Wyeth, priority 2005, dated 2008):
Where two headings read alike, the source gives them in different places.

How the values were obtained:
human BACE1 = human BACE1 (Homo sapiens, UniProt P56817); assay: Fluorescent kinetic assay, BACE-1 (Example 114); format: biochemical
Procedure: Evaluation of BACE-1 Binding Affinity of Test Compounds
Fluorescent Kinetic Assays
Dilution and mixing steps: total reaction volume: 100 μL
100 μM substrate dilution in 1×PBS was prepared, and
Fluorescence Readings: Readings at λex 320 nm and εem 420 nm are taken every 40 sec for 30 min at room temperature and the linear slope for substrate cleavage rate (vi) determined.

[1] = 10 nM human BACE1, 25 μM substrate WABC-6, 50 mM Na-Acetate pH 4.5, room temperature, read-out: BACE-1 (IC50 μM)

Sequence of human BACE1 (P56817 46-501): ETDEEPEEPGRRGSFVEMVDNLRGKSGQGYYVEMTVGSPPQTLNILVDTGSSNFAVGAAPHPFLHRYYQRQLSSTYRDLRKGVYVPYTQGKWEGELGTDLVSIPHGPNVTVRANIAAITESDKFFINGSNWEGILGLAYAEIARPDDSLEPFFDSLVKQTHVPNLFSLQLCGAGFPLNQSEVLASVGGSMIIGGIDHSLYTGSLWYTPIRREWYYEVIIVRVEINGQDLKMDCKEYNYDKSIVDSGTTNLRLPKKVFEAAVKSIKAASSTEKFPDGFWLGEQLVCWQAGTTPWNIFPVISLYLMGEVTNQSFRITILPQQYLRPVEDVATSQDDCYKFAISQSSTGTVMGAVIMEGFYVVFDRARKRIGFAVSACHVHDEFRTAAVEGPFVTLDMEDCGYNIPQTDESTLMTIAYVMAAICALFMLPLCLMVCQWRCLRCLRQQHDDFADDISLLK

Row | IC50 (human BACE1) | melting point | IC50 (human BACE1; [1]) | SMILES
1 | 0.11 to 1 µM | 188 to 190 °C | – | CN1C(=O)C(c2ccncc2)(c2cccc(-c3cccc(C(N)=O)c3)c2)N=C1N (centres unmarked) [Example 37]
2 | 0.01 to 0.1 µM | 138 to 141 °C | – | Cc1cc(C2(c3cccc(-c4cnccn4)c3)N=C(N)N(C)C2=O)ccn1 (centres unmarked) [Example 66]
3 | – | 155 to 157 °C | 0.01 to 0.1 µM | CCc1cc(C2(c3ccc(F)c(-c4cncc(F)c4)c3)N=C(N)N(C)C2=O)cc(CC)n1 (centres unmarked) [Example 104, 2-Amino-5-(2,6-diethyl-pyridin-4-yl)-5-[4-fluoro-3-(5-fluoropyridin-3-yl)-phenyl]-3-methyl-3,5-dihydro-imidazol-4-one]
4 | 0.11 to 1 µM | 234 °C | – | CN1C(=O)C(c2ccncc2)(c2cccc(-c3cccc(C(F)(F)F)c3)c2)N=C1N (centres unmarked) [Example 32]
5 | 0.11 to 1 µM | 263 to 265 °C | – | CN1C(=O)C(c2ccncc2)(c2cccc(-c3cccc(O)c3)c2)N=C1N (centres unmarked) [Example 35]
6 | – | 107 to 112 °C | 0.11 to 1 µM | CCc1cc(C2(c3cccc(-c4cc(F)ccc4F)c3)N=C(N)N(C)C2=O)cc(CC)n1 (centres unmarked) [Example 92]
7 | 0.11 to 1 µM | 176 to 180 °C | – | Cc1cc(C2(c3cccc(-c4cccnc4)c3)N=C(N)N(C)C2=O)cc(C)n1 (centres unmarked) [Example 74]
